Experiment [1] addresses T1, NET (Homo sapiens, UniProt P23975). In words: hNET membrane radioligand binding assay (3H-nisoxetine). The arrangement: expressed in transfected cells; host or cells: HEK-293. As to conditions: hNET membranes (HEK-293), 1.0 nM 3H-nisoxetine; for Ki: read-out: NET pKi (converted). Here is the method:
(§1) Membrane radioligand binding assays were used to measure inhibition of labeled ligand (^3H-citalopram or ^3H-nisoxetine or ^3H-WIN35428) binding to membranes prepared from cells expressing the respective human recombinant transporter (hSERT or hNET or hDAT) in order to determine the pKi values of test compounds at the transporters.
(§2) Recombinant human embryonic kidney (HEK-293) derived cell lines stably transfected with hSERT or hNET, respectively, were grown in DMEM medium supplemented with 10% dialyzed FBS (for hSERT) or FBS (for hNET), 100 μg/ml penicillin, 100 μg/ml streptomycin, 2 mM L-glutamine and 250 μg/ml of the aminoglycoside antibiotic G418, in a 5% CO2 humidified incubator at 37° C. When cultures reached 80% confluence, the cells were washed thoroughly in PBS (without Ca^2+ and Mg^2+) and lifted with 5 mM EDTA in PBS. Cells were pelleted by centrifugation, resuspended in lysis buffer (10 mM Tris-HCl, pH7.5 containing 1 mM EDTA), homogenized, pelleted by centrifugation, then resuspended in 50 mM Tris-HCl, pH 7.5 and 10% sucrose at 4° C. Protein concentration of the membrane suspension was determined using a Bio-Rad Bradford Protein Assay kit. Membranes were snap frozen and stored at −80° C. Chinese hamster ovary membranes expressing hDAT (CHO-DAT) were purchased from PerkinElmer and stored at −80° C.
(§3) Binding assays were performed in a 96-well assay plate in a total volume of 200 μl assay buffer (50 mM Tris-HCl, 120 mM NaCl, 5 mM KCl, pH 7.4) with 0.5, 1, and 3 μg membrane protein, for SERT, NET and DAT, respectively.
(§4) Stock solutions (10 mM in DMSO) of test compound were prepared and serial dilutions made using Dilution Buffer (50 mM Tris-HCl, 120 mM NaCl, 5 mM KCl, pH 7.4, 0.1% BSA, 400 μM ascorbic acid). Non-specific radioligand binding was determined in the presence of 1 μM duloxetine, 1 μM desipramine or 10 μM GBR12909 (each in Dilution Buffer) for the hSERT, hNET or hDAT assays, respectively.
(§5) Following a 60 minute incubation at 22° C. (or a period sufficient to reach equilibrium), the membranes were harvested by rapid filtration over a 96-well UniFilter GF/B plate, pretreated with 0.3% polyethyleneimine, and washed 6 times with […] (50 mM Tris-HCl, 0.9% NaCl, pH 7.5 at 4° C.). Plates were dried overnight at room temperature, approximately […] of MicroScint™-20 (Perkin Elmer) added and bound radioactivity quantitated via liquid scintillation spectroscopy. Inhibition curves and saturation isotherms were analyzed using GraphPad Prism Software package (GraphPad Software, Inc., San Diego, Calif.). IC50 values were generated from concentration response curves using the Sigmoidal Dose Response (variable slope) algorithm in Prism GraphPad. Kd and Bmax values for the radioligand were generated from saturation isotherms using the Saturation Binding Global Fit algorithm in Prism GraphPad. pKi (negative decadic logarithm of Ki) values for test compounds were calculated from the best-fit IC50 values, and the Kd value of the radioligand, using the Cheng-Prusoff equation (Cheng & Prusoff (1973) Biochem. Pharmacol. 22(23):3099-3108): Ki=IC50/(1+[L]/Kd), where [L]=concentration radioligand.

In experiment [2] the target is T2, SERT (Homo sapiens, UniProt P31645). In words: hSERT membrane radioligand binding assay (3H-citalopram). As to conditions: hSERT membranes (HEK-293), 1.0 nM 3H-citalopram; for Ki: read-out: SERT pKi (converted). Also on record: expressed in transfected cells; host or cells: HEK-293. The procedure:
as §1, §2, §3, §4, §5
Target sequence in this assay (P31645 whole entry): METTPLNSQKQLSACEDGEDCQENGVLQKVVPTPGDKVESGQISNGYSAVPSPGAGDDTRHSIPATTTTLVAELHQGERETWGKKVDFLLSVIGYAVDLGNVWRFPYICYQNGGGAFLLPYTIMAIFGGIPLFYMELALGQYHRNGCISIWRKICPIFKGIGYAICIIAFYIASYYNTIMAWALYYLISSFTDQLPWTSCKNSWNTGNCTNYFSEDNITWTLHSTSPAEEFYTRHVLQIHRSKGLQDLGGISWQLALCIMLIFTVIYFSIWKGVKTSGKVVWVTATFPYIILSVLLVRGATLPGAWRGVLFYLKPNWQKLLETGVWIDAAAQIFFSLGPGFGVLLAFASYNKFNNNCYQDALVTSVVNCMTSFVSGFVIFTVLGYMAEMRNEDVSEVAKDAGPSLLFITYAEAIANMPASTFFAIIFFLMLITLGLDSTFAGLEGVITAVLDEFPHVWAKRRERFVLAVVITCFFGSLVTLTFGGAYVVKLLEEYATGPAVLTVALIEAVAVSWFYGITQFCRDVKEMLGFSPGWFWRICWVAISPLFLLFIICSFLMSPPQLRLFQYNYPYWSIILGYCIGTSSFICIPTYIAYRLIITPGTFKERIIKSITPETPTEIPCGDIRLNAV

The target in experiment [3] is T2, SERT. In words: hSERT neurotransmitter uptake assay (3H-5-HT). It is filed as cell-based. The arrangement: expressed in transfected cells; host or cells: HEK-293. As to conditions: serotonin reuptake inhibition, HEK-293 hSERT cells, 3H-5-HT (no asterisk); read-out: SERT pIC50 (converted). The procedure: (§6) Neurotransmitter uptake assays were used to measure inhibition of ^3H-serotonin (^3H-5-HT), ^3H-norepinephrine (^3H-NE), and ^3H-dopamine (^3H-DA) uptake into cells expressing the respective transporter (hSERT, hNET or hDAT) in order to determine the pIC50 values of test compounds at the transporters.
(§7) HEK-293 derived cell lines stably-transfected with hSERT, hNET, or hDAT, respectively, were grown in DMEM medium supplemented with 10% dialyzed FBS (for hSERT) or FBS (for hNET and hDAT), 100 μg/ml penicillin, 100 μg/ml streptomycin, 2 mM L-glutamine and 250 μg/ml of the aminoglycoside antibiotic G418 (for hSERT and hNET) or 800 ug/ml (for hDAT), in a 5% CO2 humidified incubator at 37° C. When cultures reached 80% confluence, the cells were washed thoroughly in PBS (without Ca^2+ and Mg^2+) and lifted with 5 mM EDTA in PBS. Cells were harvested by centrifugation at 1100 rpm for 5 minutes, washed once by resuspension in PBS, then centrifuged. The supernatant was discarded and the cell pellet resuspended, by gentle trituration, in room temperature Krebs-Ringer bicarbonate buffer containing HEPES (10 mM), CaCl2 (2.2 mM), ascorbic acid (200 μM) and pargyline (200 μM), pH 7.4. The final concentration of cells in the cell suspension was 7.5×10^4 cells/ml, 1.25×10^5 cells/ml, and 5.0×10^4 cells/ml for SERT, NET, and DAT cell lines, respectively.
(§8) Neurotransmitter uptake assays were performed in a 96-well assay plate in a total volume of 400 μl assay buffer (Krebs-Ringer bicarbonate buffer containing HEPES (10 mM), CaCl2 (2.2 mM), ascorbic acid (200 μM) and pargyline (200 μM), pH 7.4) with 1.5×10^4 and 2.5×10^4 cells, for SERT, NET, and DAT, respectively. […] Stock solutions (10 mM in DMSO) of test compound were prepared and serial dilutions prepared using 50 mM Tris-HCl, 120 mM NaCl, 5 mM KCl, pH 7.4, 0.1% BSA, 400 μM ascorbic acid. Test compounds were incubated for 30 minutes at 37° C. with the respective cells, prior to addition of radiolabeled neurotransmitter, ^3H-5-HT (20 nM final concentration), ^3H-NE (50 nM final concentration) or ^3H-DA (100 nM final concentration). Non-specific neurotransmitter uptake was determined in the presence of 2.5 μM duloxetine, 2.5 μM desipramine, or 10 uM GBR-12909 (each in Dilution Buffer) for the hSERT, hNET, or hDAT assays, respectively.
(§9) Following a 10 minute incubation, at 37° C., with radioligand, the cells were harvested by rapid filtration over a 96-well UniFilter GF/B plate, pretreated with 1% BSA, and washed 6 times with 650 μl wash buffer (ice cold PBS). Plates were dried overnight at 37° C., ˜45 μl of MicroScint™-20 (Perkin Elmer) added and incorporated radioactivity quantitated via liquid scintillation spectroscopy Inhibition curves were analyzed using GraphPad Prism Software package (GraphPad Software, Inc., San Diego, Calif.). IC50 values were generated from concentration response curves using the Sigmoidal Dose Response (variable slope) algorithm in Prism GraphPad.
Target sequence in this assay (P31645 whole entry): as above

In experiment [4] the target is T1, NET. In words: hNET neurotransmitter uptake assay (3H-NE). It is filed as cell-based. The arrangement: expressed in transfected cells; host or cells: HEK-293. As to conditions: norepinephrine reuptake inhibition, HEK-293 hNET cells, 3H-NE (no asterisk); for IC50: read-out: NET pIC50 (converted). The procedure:
as §6, §7, §8, §9

The target in experiment [5] is T1, NET. The experiment is described as follows: fluorescence-based norepinephrine uptake assay (Tsuruda et al. 2010). It is filed as cell-based. As to conditions: norepinephrine reuptake inhibition, fluorescence-based assay (data indicated by an asterisk); read-out: NET pIC50 (converted).
Experiment [6] deals with T2, SERT. The experiment is described as follows: fluorescence-based serotonin uptake assay (Tsuruda et al. 2010). It is filed as cell-based. As to conditions: serotonin reuptake inhibition, fluorescence-based assay (data indicated by an asterisk); read-out: SERT pIC50 (converted).
Target sequence in this assay (P31645 whole entry, species assumed): as the sequence (P31645 whole entry) above

Some results are limits rather than exact numbers.

T1 sequence (P23975 whole entry): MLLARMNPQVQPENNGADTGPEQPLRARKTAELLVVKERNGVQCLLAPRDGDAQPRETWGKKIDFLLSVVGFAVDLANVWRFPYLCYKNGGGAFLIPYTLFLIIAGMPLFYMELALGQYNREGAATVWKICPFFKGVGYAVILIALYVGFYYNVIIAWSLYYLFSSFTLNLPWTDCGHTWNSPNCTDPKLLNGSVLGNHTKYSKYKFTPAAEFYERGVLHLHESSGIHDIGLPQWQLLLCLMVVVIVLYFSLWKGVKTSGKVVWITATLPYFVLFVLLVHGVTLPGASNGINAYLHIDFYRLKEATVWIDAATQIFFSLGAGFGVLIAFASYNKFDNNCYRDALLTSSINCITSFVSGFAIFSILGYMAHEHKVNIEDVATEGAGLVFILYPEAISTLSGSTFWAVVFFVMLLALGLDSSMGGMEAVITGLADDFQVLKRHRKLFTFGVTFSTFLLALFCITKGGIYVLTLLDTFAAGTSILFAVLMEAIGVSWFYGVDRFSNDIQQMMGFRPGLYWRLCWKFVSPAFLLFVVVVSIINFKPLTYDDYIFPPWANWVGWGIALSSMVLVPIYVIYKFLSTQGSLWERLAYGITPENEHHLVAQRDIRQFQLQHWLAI

`Clc1cc(Cl)cc(O[C@H](C2CCOCC2)[C@@H]2CCNC2)c1` [Example 13-29, (R)-3-[(R)-(3,5-Dichlorophenoxy)(tetrahydropyran-4-yl)methyl]pyrrolidine]: the Ki in experiment [1] and in experiment [2] was no more than 10 nM each time. Further, the IC50 in experiment [3] and in experiment [4] was no more than 100 nM each time.
With `COC[C@@H](Oc1cccc(F)c1Cl)[C@H]1CCNC1` [Example 4-13, (S)-3-[(S)-1-(2-Chloro-3-fluorophenoxy)-2-methoxyethyl]pyrrolidine], the Ki in experiment [1] and in experiment [2] was no more than 10 nM in each case. Besides, the IC50 in experiment [3] and in experiment [4] was no more than 100 nM in each case.
Regarding `CC(C)OC[C@H](Oc1cccc(Cl)c1C(F)(F)F)[C@@H]1CCNC1` [Example 9-18, (R)-3-[(R)-1-(3-Chloro-2-trifluoromethylphenoxy)-2-isopropoxyethyl]pyrrolidine], the IC50 in experiment [5] and in experiment [6] was no more than 100 nM each time. For the same compound, the Ki was no more than 100 nM in experiment [1] and no more than 10 nM in experiment [2].
On to `OC[C@@H](Oc1ccc(Cl)cc1Cl)[C@@H]1CCNC1` (stereo in doubt) [Example 2-1, (R)-2-(2,4-Dichlorophenoxy)-2-(S)-pyrrolidin-3-yl-ethanol], for which the IC50 in experiment [3] and in experiment [4] was no more than 100 nM throughout.
`CC(C)OC[C@H](Oc1cccc(F)c1Cl)[C@@H]1CCNC1` [Example 9-10, (R)-3-[(R)-1-(2-Chloro-3-fluorophenoxy)-2-isopropoxyethyl]pyrrolidine]: the IC50 in experiment [5] and in experiment [6] was no more than 100 nM throughout. Besides, the Ki in experiment [1] and in experiment [2] was no more than 100 nM each time.
Take `Cc1c(Cl)cccc1O[C@@H](COC(C)C)[C@@H]1CCNC1` [Example 9-14, (R)-3-[(R)-1-(3-Chloro-2-methylphenoxy)-2-isopropoxyethyl]pyrrolidine]: the IC50 is no more than 100 nM in experiment [5] and no more than 10 nM in experiment [6]. In addition, the values for the Ki in experiment [1] and in experiment [2] were no more than 100 nM and no more than 10 nM, respectively.
As to `FC(F)(F)c1ccc(O[C@@H](C2CCOCC2)[C@H]2CCNC2)cc1` [Example 13-11, (S)-3-[(S)-(Tetrahydropyran-4-yl)(4-trifluoromethylphenoxy)methyl]pyrrolidine], the IC50 is no more than 100 nM in experiment [5] and no more than 10 nM in experiment [6]. Also, the figures for the Ki in experiment [1] and in experiment [2] were no more than 100 nM and no more than 10 nM, respectively.
For the compound `CCOC[C@H](Oc1cccc2ccccc12)[C@H]1CCNC1` [Example 11, (S)-3-[(R)-2-Ethoxy-1-(naphthalen-1-yloxy)ethyl]pyrrolidine], the IC50 in experiment [3] and in experiment [4] was no more than 10 nM each time.
On to `CC(C)OC[C@H](Oc1ccc(Cl)cc1Cl)[C@@H]1CCNC1` [Example 9-22, (R)-3-[(R)-1-(2,4-Dichlorophenoxy)-2-isopropoxyethyl]pyrrolidine], for which the IC50 in experiment [5] is no more than 1000 nM; in experiment [6], no more than 10 nM. In addition, the Ki in experiment [1] was no more than 1000 nM; in experiment [2] it was no more than 10 nM.
With `COCC(Oc1cccc(Cl)c1Cl)C1CCNC1` (centres unmarked) [Example 4-6, 3-[1-(2,3-Dichlorophenoxy)-2-methoxyethyl]pyrrolidine], the “NET pKi” value in experiment [1] is “≧8.0”. Also, the “SERT pKi” value in experiment [2] is “≧8.0”. Moreover, the “NET pIC50” value in experiment [4] was “≧8.0”.
As for `CC(C)OC[C@H](Oc1cccc(C(F)(F)F)c1)[C@@H]1CCNC1` [Example 9-2, (R)-3-[(R)-2-Isopropoxy-1-(3-trifluoromethylphenoxy)ethyl]pyrrolidine], the values for the IC50 in experiment [5] and in experiment [6] were no more than 1000 nM and no more than 100 nM, respectively. In addition, the Ki was no more than 10000 nM in experiment [1] and no more than 100 nM in experiment [2].
Take `CC(C)OC[C@H](Oc1c(Cl)cccc1Cl)[C@@H]1CCNC1` [Example 9-27, (R)-3-[(R)-1-(2,6-Dichlorophenoxy)-2-isopropoxyethyl]pyrrolidine]: the IC50 was no more than 100 nM in experiment [5] and no more than 1000 nM in experiment [6]. The Ki in experiment [1] and in experiment [2] was no more than 1000 nM throughout.
With `CC(C)OC[C@H](Oc1cccc(Cl)c1Cl)[C@@H]1CCNC1` [Example 9-6, (R)-3-[(R)-1-(2,3-Dichlorophenoxy)-2-isopropoxyethyl]pyrrolidine], the IC50 in experiment [5] and in experiment [6] was no more than 100 nM each time. Also, the Ki in experiment [1] was no more than 100 nM; in experiment [2] it was no more than 10 nM.

The values above are taken from patent US8455665B2, “3-phenoxymethylpyrrolidine compounds” (Theravance, Inc., priority 2009, dated 2013).
